According to patent US7964751B2, “Enantiomers of amino-phenyl-acetic acid octadec-9-(Z) enyl ester, their salts and their uses” (Yeda Research and Development Co. Ltd., priority 2007, dated 2011):
Counter-ions that a name gives are not always drawn. Each block holds one molecule with its values, some of them ahead of it.

Legend:
[1] = tested on: Delayed type hypersensitivity (DTH) skin inflammation in Balb/c mice; assay: Delayed type hypersensitivity (DTH), oxazolone-induced mouse ear swelling test; type: in vivo; conditions: for % Inflamation (Diff/Base line * 100) / % Inhibition / Difference mm: 24 hours; for inhibition of inflammation: DTH model
Protocol: Delayed type hypersensitivity (DTH), a localized inflammatory reaction induced by cytokines secreted by certain TH cells when they encounter certain types of antigens, is an established experimental model for skin inflammation.
DTH reactions were induced in the abdomen skin of 8 week old female Balb/c mice, weighing 20 g each.
The mice were sensitized first by topical application of 100 μl of a 5% Oxazolone (4-Ethoxymethylene-2-phenyl-2-oxazolin-5-one; Sigma) solution in ethanol/acetone (3:1, vol/vol) to a shaved abdomen. The mice were anesthetized with I.P. injection of 0.2 ml/mouse of a stock solution prepared from Ketamine (1 ml)+Xylazine (1 ml)+Saline (8 ml). The anesthesia was done for the shaving of the abdomen and the first sensitization.
After 4 days the mice were challenged for the second time using 1% Oxazolone (4-Ethoxymethylene-2-phenyl-2-oxazolin-5-one; Sigma) solution in ethanol/acetone (3:1, vol/vol). The solution was pipetted onto the shaved abdomen of the mice.
Six days after the first sensitization, the right ear of each mouse was challenged with topical application of 20 μl (10 μl at each surface of the ear) of a 1% Oxazolone solution in olive oil/acetone (3:1, vol/vol).
Treatment was given 30 min after the elicitation by applying 40 μl (20 μl at each surface of the ear) of treatment compounds, as described before, on the challenged ear of each mouse.
After 24 hours, the extent of inflammation was measured using the mouse ear swelling test (caliper) and the percent inhibition induced by the treatment was quantified.
The experiment includes a positive control group which was administered Dexamethasone 2 mg/mouse, one untreated group as a negative control and one naïve group.
Baseline measurements of the ear were conducted before the first sensitization.

[2] = Racemization in various solvents, S-isomer measured by chiral HPLC; type: physicochemical
Protocol: A sample of (R)-Amino-phenyl-acetic acid octadec-9-(Z)-enyl ester HCl (Compound 2) was suspended in various solvents (2 mg/ml). The compound was 99.7% enantiomerically pure as determined by chiral HPLC. The presence of the S-isomer (compound 1) was measured after various time points. The amount of racemization in terms of percent (relative to compound 1+compound 2) is detailed in Table 2 below.
The presence of the S-isomer (Compound 1) was measured by chiral HPLC after various time points. The amount in terms of percent (relative to compound 1+compound 2) is detailed in the table below.

pKa of the compound = type: physicochemical
[3] = 5 mg/ml, 0.2 mg/mouse topical on challenged ear
[4] = 8 mg/ml, 0.32 mg/mouse topical on challenged ear
[5] = 12.5 mg/ml, 0.5 mg/mouse topical on challenged ear
[6] = 25 mg/ml, 1 mg/mouse topical on challenged ear
[7] = positive control, 50 mg/ml, 2 mg/mouse

Compound: CCCCCCCC/C=C\CCCCCCCCOC(=O)C(N)c1ccccc1.Cl (racemic) [Racemic, aminophenylacetic acid octadec-(Z)-9-enyl ester HCl, reference compound]
% Inflamation (Diff/Base line * 100) [1, 3]: 69.43% | % Inhibition [1, 3]: 38.46% | Difference mm [1, 3]: 0.18 mm | % Inflamation (Diff/Base line * 100) [1, 4]: 73.53% | % Inhibition [1, 4]: 39.98% | Difference mm [1, 4]: 0.17 mm | % Inflamation (Diff/Base line * 100) [1, 5]: 43.08% | % Inhibition [1, 5]: 60.14% | Difference mm [1, 5]: 0.11 mm | % Inflamation (Diff/Base line * 100) [1, 6]: 13.68% | % Inhibition [1, 6]: 87.76% | Difference mm [1, 6]: 0.04 mm | inhibition of inflammation [1]: provide inhibition of inflammation

Compound: CCCCCCCC/C=C\CCCCCCCCOC(=O)[C@@H](N)c1ccccc1 [Compound 1, (S)-Amino-phenyl-acetic acid octadec-9-(Z)-enyl ester HCl]
% Inflamation (Diff/Base line * 100) [1, 3]: 87.18% | % Inhibition [1, 3]: 20.75% | Difference mm [1, 3]: 0.23 mm | % Inflamation (Diff/Base line * 100) [1, 4]: 34.76% | % Inhibition [1, 4]: 68.53% | Difference mm [1, 4]: 0.09 mm | % Inflamation (Diff/Base line * 100) [1, 5]: 25.84% | % Inhibition [1, 5]: 77.86% | Difference mm [1, 5]: 0.06 mm | % Inflamation (Diff/Base line * 100) [1, 6]: 17.70% | % Inhibition [1, 6]: 83.68% | Difference mm [1, 6]: 0.05 mm | inhibition of inflammation [1]: provide inhibition of inflammation

Percent racemization (relative to compound 1 + compound 2) ([2]; 0.1 N HCl, 2 mg/ml, 0 hours): 0.4% | Percent racemization (relative to compound 1 + compound 2) ([2]; 0.1 N HCl, 2 mg/ml, 1 hour): 0.4% | Percent racemization (relative to compound 1 + compound 2) ([2]; 0.1 N HCl, 2 mg/ml, 2 hours): 0.4% | Percent racemization (relative to compound 1 + compound 2) ([2]; 0.1 N HCl, 2 mg/ml, 3 hours): 0.3% | Percent racemization (relative to compound 1 + compound 2) ([2]; 0.1 N HCl, 2 mg/ml, 4 hours): 0.3% | Percent racemization (relative to compound 1 + compound 2) ([2]; 0.1 N HCl, 2 mg/ml, 21 hours): 0.3% | Percent racemization (relative to compound 1 + compound 2) ([2]; 0.9% NaCl solution, 2 mg/ml, 0 hours): 0.9% | Percent racemization (relative to compound 1 + compound 2) ([2]; 0.9% NaCl solution, 2 mg/ml, 1 hour): 1.2% | Percent racemization (relative to compound 1 + compound 2) ([2]; 0.9% NaCl solution, 2 mg/ml, 2 hours): 2.3% | Percent racemization (relative to compound 1 + compound 2) ([2]; 0.9% NaCl solution, 2 mg/ml, 3 hours): 3.3% | Percent racemization (relative to compound 1 + compound 2) ([2]; 0.9% NaCl solution, 2 mg/ml, 4 hours): 3.0% | Percent racemization (relative to compound 1 + compound 2) ([2]; 0.9% NaCl solution, 2 mg/ml, 21 hours): 6.0% | S-isomer (Compound 1) amount in percent (relative to compound 1+compound 2) ([2]; 1% Acetic acid, pH 2.8, 2 mg/ml, 0 hr): 0.7% | S-isomer (Compound 1) amount in percent (relative to compound 1+compound 2) ([2]; 1% Acetic acid, pH 2.8, 2 mg/ml, 1 hr): 2.0% | S-isomer (Compound 1) amount in percent (relative to compound 1+compound 2) ([2]; 1% Acetic acid, pH 2.8, 2 mg/ml, 2 hr): 3.6% | S-isomer (Compound 1) amount in percent (relative to compound 1+compound 2) ([2]; 1% Acetic acid, pH 2.8, 2 mg/ml, 3 hr): 5.2% | S-isomer (Compound 1) amount in percent (relative to compound 1+compound 2) ([2]; 1% Acetic acid, pH 2.8, 2 mg/ml, 4 hr): 6.6% | S-isomer (Compound 1) amount in percent (relative to compound 1+compound 2) ([2]; Acetate Buffer, pH 3.5, 2 mg/ml, 0 hr): 0.3% | S-isomer (Compound 1) amount in percent (relative to compound 1+compound 2) ([2]; Acetate Buffer, pH 3.5, 2 mg/ml, 1 hr): 3.3% | S-isomer (Compound 1) amount in percent (relative to compound 1+compound 2) ([2]; Acetate Buffer, pH 3.5, 2 mg/ml, 2 hr): 6.2% | S-isomer (Compound 1) amount in percent (relative to compound 1+compound 2) ([2]; Acetate Buffer, pH 3.5, 2 mg/ml, 3 hr): 9.3% | S-isomer (Compound 1) amount in percent (relative to compound 1+compound 2) ([2]; Acetate Buffer, pH 3.5, 2 mg/ml, 4 hr): 12.1% | S-isomer (Compound 1) amount in percent (relative to compound 1+compound 2) ([2]; Acetate Buffer, pH 4.0, 2 mg/ml, 0 hr): 0.2% | S-isomer (Compound 1) amount in percent (relative to compound 1+compound 2) ([2]; Acetate Buffer, pH 4.0, 2 mg/ml, 1 hr): 7.7% | S-isomer (Compound 1) amount in percent (relative to compound 1+compound 2) ([2]; Acetate Buffer, pH 4.0, 2 mg/ml, 2 hr): 15.2% | S-isomer (Compound 1) amount in percent (relative to compound 1+compound 2) ([2]; Acetate Buffer, pH 4.0, 2 mg/ml, 3 hr): 22.1% | S-isomer (Compound 1) amount in percent (relative to compound 1+compound 2) ([2]; Acetate Buffer, pH 4.0, 2 mg/ml, 4 hr): 27.2% | S-isomer (Compound 1) amount in percent (relative to compound 1+compound 2) ([2]; Acetate Buffer, pH 5.0, 2 mg/ml, 0 hr): 0.2% | S-isomer (Compound 1) amount in percent (relative to compound 1+compound 2) ([2]; Acetate Buffer, pH 5.0, 2 mg/ml, 1 hr): 6.3% | S-isomer (Compound 1) amount in percent (relative to compound 1+compound 2) ([2]; Acetate Buffer, pH 5.0, 2 mg/ml, 2 hr): 14.6% | S-isomer (Compound 1) amount in percent (relative to compound 1+compound 2) ([2]; Acetate Buffer, pH 5.0, 2 mg/ml, 3 hr): 19.0% | S-isomer (Compound 1) amount in percent (relative to compound 1+compound 2) ([2]; Acetate Buffer, pH 5.0, 2 mg/ml, 4 hr): 25.3% | S-isomer (Compound 1) amount in percent (relative to compound 1+compound 2) ([2]; Acetate Buffer, pH 5.5, 2 mg/ml, 0 hr): 0.2% | S-isomer (Compound 1) amount in percent (relative to compound 1+compound 2) ([2]; Acetate Buffer, pH 5.5, 2 mg/ml, 1 hr): 4.7% | S-isomer (Compound 1) amount in percent (relative to compound 1+compound 2) ([2]; Acetate Buffer, pH 5.5, 2 mg/ml, 2 hr): 8.2% | S-isomer (Compound 1) amount in percent (relative to compound 1+compound 2) ([2]; Acetate Buffer, pH 5.5, 2 mg/ml, 3 hr): 12.4% | S-isomer (Compound 1) amount in percent (relative to compound 1+compound 2) ([2]; Acetate Buffer, pH 5.5, 2 mg/ml, 4 hr): 16.4% | Percent racemization (relative to compound 1 + compound 2) ([2]; PBS, pH 7.4, 2 mg/ml, 0 hours): 0.4% | Percent racemization (relative to compound 1 + compound 2) ([2]; PBS, pH 7.4, 2 mg/ml, 1 hour): 7.2% | Percent racemization (relative to compound 1 + compound 2) ([2]; PBS, pH 7.4, 2 mg/ml, 2 hours): 12.3% | Percent racemization (relative to compound 1 + compound 2) ([2]; PBS, pH 7.4, 2 mg/ml, 3 hours): 15.0% | Percent racemization (relative to compound 1 + compound 2) ([2]; PBS, pH 7.4, 2 mg/ml, 4 hours): 17.9% | Percent racemization (relative to compound 1 + compound 2) ([2]; PBS, pH 7.4, 2 mg/ml, 21 hours): 47.0% | Percent racemization (relative to compound 1 + compound 2) ([2]; Purified water, 2 mg/ml, 0 hours): 0.4% | Percent racemization (relative to compound 1 + compound 2) ([2]; Purified water, 2 mg/ml, 1 hour): 3.8% | Percent racemization (relative to compound 1 + compound 2) ([2]; Purified water, 2 mg/ml, 2 hours): 7.2% | Percent racemization (relative to compound 1 + compound 2) ([2]; Purified water, 2 mg/ml, 3 hours): 10.3% | Percent racemization (relative to compound 1 + compound 2) ([2]; Purified water, 2 mg/ml, 4 hours): 13.9% | Percent racemization (relative to compound 1 + compound 2) ([2]; Purified water, 2 mg/ml, 21 hours): 38.2% | racemization in various aqueous solvents ([2]; various aqueous solvents): undergoes racemization | pKa (pKa of the compound): 4.2
Compound: CCCCCCCC/C=C\CCCCCCCCOC(=O)[C@H](N)c1ccccc1 [Compound 2, (R)-Amino-phenyl-acetic acid octadec-9-(Z)-enyl ester HCl]
% Inflamation (Diff/Base line * 100) [1, 3]: 71.13% | % Inhibition [1, 3]: 39.39% | Difference mm [1, 3]: 0.17 mm | % Inflamation (Diff/Base line * 100) [1, 4]: 41.68% | % Inhibition [1, 4]: 62.12% | Difference mm [1, 4]: 0.11 mm | % Inflamation (Diff/Base line * 100) [1, 5]: 50.31% | % Inhibition [1, 5]: 55.71% | Difference mm [1, 5]: 0.13 mm | % Inflamation (Diff/Base line * 100) [1, 6]: 35.01% | % Inhibition [1, 6]: 68.53% | Difference mm [1, 6]: 0.09 mm | inhibition of inflammation [1]: provide inhibition of inflammation

Compound: C[C@@H]1C[C@H]2[C@@H]3CCC4=CC(=O)C=C[C@]4(C)[C@@]3(F)[C@@H](O)C[C@]2(C)[C@@]1(O)C(=O)CO [dexamethasone, Dexamethasone, reference compound]
% Inflamation (Diff/Base line * 100) [1, 7]: 22.62% | % Inhibition [1, 7]: 80.42% | Difference mm [1, 7]: 0.06 mm
